The term IC50 denotes the concentration that gives 50% inhibition.

The target of the assay is T1, Menin-MLL (Homo sapiens, UniProt O00255).
T1 construct: His-Menin (M1-L615 end); purchased BIORTUS BP9210
T1 sequence (O00255 1-615 isoform O00255-1): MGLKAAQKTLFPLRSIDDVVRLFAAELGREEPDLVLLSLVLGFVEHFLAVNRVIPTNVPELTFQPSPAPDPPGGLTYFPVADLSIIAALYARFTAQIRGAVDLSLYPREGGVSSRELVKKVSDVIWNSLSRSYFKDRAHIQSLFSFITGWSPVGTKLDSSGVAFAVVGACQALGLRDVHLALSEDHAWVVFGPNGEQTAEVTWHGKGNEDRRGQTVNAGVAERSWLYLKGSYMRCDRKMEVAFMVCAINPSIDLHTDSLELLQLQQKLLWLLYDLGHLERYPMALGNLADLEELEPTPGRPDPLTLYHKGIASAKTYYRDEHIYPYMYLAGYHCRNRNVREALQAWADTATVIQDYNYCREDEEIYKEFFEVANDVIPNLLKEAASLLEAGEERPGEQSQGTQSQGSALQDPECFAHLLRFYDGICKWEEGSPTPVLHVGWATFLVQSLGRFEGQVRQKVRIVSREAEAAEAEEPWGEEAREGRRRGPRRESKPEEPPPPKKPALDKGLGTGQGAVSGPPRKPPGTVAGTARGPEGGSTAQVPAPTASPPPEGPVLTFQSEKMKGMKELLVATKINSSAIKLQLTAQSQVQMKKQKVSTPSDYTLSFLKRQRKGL
As to the kind of experiment: Inhibitory activity against Menin-MLL binding (fluorescence polarization). As to conditions: fluorescence polarization; 150 nM His-Menin, 15 nM FITC-MLL; 25°C for 60 min; read-out: Menin-MLL IC50. In outline:
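His-Menin (M1-L615, 150 nM) preincubated with compound 15 min at 25 °C in HEPES pH 7.5, 50 mM NaCl, 1 mM DTT, 0.01% BSA, then 15 nM FITC-MLL4-43 peptide added for 60 min at 25 °C. Fluorescence polarization read; IC50 from 4-parameter logistic fit, duplicates.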
As to `Cc1nc(F)c2c(-c3ccc(F)cc3C(=O)N3CCOC[C@H]3C)cc(C3CN(C(C)C4CCOCC4)C3)cn12` (stereo partly drawn) [Example 238, (3R)-4-[5-fluoro-2-(1-fluoro-3-methyl-6-{1-[1-(oxacyclohexan-4-yl)ethyl]azacyclobutan-3-yl}imidazo[1,5-a]pyridin-8-yl)benzoyl]-3-methylmorpholine], the IC50 was found to be 10 nM.
As for `Cc1nc(F)c2c(-c3ccc(F)cc3C(=O)N3CCOC[C@H]3C)cc(C3CN([C@H](C)C4CCOCC4)C3)cn12` [Example 238-1, (3R)-4-[5-fluoro-2-(1-fluoro-3-methyl-6-{1-[(1R)-1-(oxacyclohexan-4-yl)ethyl]azacyclobutan-3-yl}imidazo[1,5-a]pyridin-8-yl)benzoyl]-3-methylmorpholine], the half-inhibitory concentration (IC50) was determined as 80 nM.
With `Cc1nc(F)c2c(-c3ccc(F)cc3C(=O)N3CCOC[C@H]3C)cc(C3CN(CC4(O)CCOCC4)C3)cn12` [Example 239], the half-inhibitory concentration (IC50) was 199 nM.
Turning to `Cc1nc(F)c2c(-c3ccc(F)cc3C(=O)N3CCOC[C@H]3C)cc(C3CN(CC4CCOC4)C3)cn12` (stereo partly drawn) [Example 240], the half-maximal inhibitory concentration (IC50) is 53.5 nM.
Take `COCC(=O)N1CCC(CN2CC(c3cc(-c4ccc(F)cc4C(=O)N4CCOC[C@H]4C)c4c(F)nc(C)n4c3)C2)CC1` [Example 241, 1-(4-{[3-(1-fluoro-8-{4-fluoro-2-[(3R)-3-methylmorpholin-4-carbonyl]phenyl}-3-methylimidazo[1,5-a]pyridin-6-yl)azacyclobutan-1-yl]methyl}piperidin-1-yl)-2-methoxyethan-1-one]: the half-inhibitory concentration (IC50) is 31.5 nM.
To `Cc1nc(F)c2c(-c3ccc(F)cc3C(=O)N3CCOC[C@H]3C)cc(C3CN([C@@H](CC[C@@H]4CNCCO4)C(C)C)C3)cn12` [Example 245-2, (3R)-4-[5-fluoro-2-(1-fluoro-3-methyl-6-{1-[(3S)-4-methyl-1-[(2R)-morpholin-2-yl]pentan-3-yl]azacyclobutan-3-yl}imidazo[1,5-a]pyridin-8yl)benzoyl]-3-methylmorpholine] belongs 58 nM; to `Cc1nc(F)c2c(-c3ccc(F)cc3C(=O)N3CCOC[C@H]3C)cc(C3CN(CC4CCN(C(=O)N(C)C)CC4)C3)cn12` [Example 246], 73 nM; to `CCS(=O)(=O)N1CCC(CN2CC(c3cc(-c4ccc(F)cc4C(=O)N4CCOC[C@H]4C)c4c(F)nc(C)n4c3)C2)CC1` [Example 251], 106 nM.
For the molecule `Cc1nc(F)c2c(-c3ccc(F)cc3C(=O)N3CCOC[C@H]3C)cc(C3CN(CC4CCN(S(=O)(=O)C5CC5)CC4)C3)cn12` [Example 252], the IC50 turned out to be 109 nM.
Then `Cc1nc(F)c2c(-c3ccc(F)cc3C(=O)N3CCOC[C@H]3C)cc(C3CN(C[C@H]4CC[C@H](n5cncn5)CC4)C3)cn12` [Example 253], with 39 nM; and `Cc1nc(F)c2c(-c3ccc(F)cc3C(=O)N3CCOC[C@H]3C)cc(C3CN(CC4CCN(C(=O)C5(C#N)CC5)CC4)C3)cn12` [Example 254], with 48 nM; and `COCC(C1CCOCC1)N1CC(c2cc(-c3ccc(F)cc3C(=O)N3CCOC[C@H]3C)c3c(F)nc(C)n3c2)C1` (stereo partly drawn) [Example 255, (3R)-4-[5-fluoro-2-(1-fluoro-6-{1-[2-methoxy-1-(oxacyclohexan-4-yl)ethyl]azacyclobutan-3-yl}-3-methylimidazo[1,5-a]pyridin-8-yl)benzoyl]-3-methylmorpholine], with 86 nM.
For `COCC(C1CCOCC1)N1CC(c2cc(-c3ccc(F)cc3C(=O)N3CCOC[C@H]3C)c3cnc(C)n3c2)C1` (stereo partly drawn) [Example 256], the IC50 amounted to 189 nM.
Consider `CC(=O)N1CCC([C@@H](C)N2CC(c3cc(-c4ccc(F)cc4C(=O)N4CCOC[C@H]4C)c4c(F)nc(C)n4c3)C2)CC1` [Example 257-1, 1-{4-[(1R)-1-[3-(1-fluoro-8-{4-fluoro-2-[(3R)-3-methylmorpholin-4-carbonyl]phenyl}-3-methylimidazo[1,5-a]pyridin-6-yl)azacyclobutan-1-yl]ethyl]piperidin-1-yl}ethan-1-one], for which the IC50 stood at 131 nM.
Take `COC1(C(=O)N2CCC(CN3CC(c4cc(-c5ccc(F)cc5C(=O)N5CCOC[C@H]5C)c5c(F)nc(C)n5c4)C3)CC2)CC1` [Example 262]: the IC50 stood at 257 nM.

Values taken from patent publication EP4782453A1 (Beyang Therapeutics Co., Ltd., priority 2023, dated 2025).
